Measured values: ChEMBL document CHEMBL5113403, “Design, synthesis, and biological evaluation of novel pyrazolo [3,4-d]pyrimidine derivatives as potent PLK4 inhibitors for the treatment of TRIM37-amplified breast cancer” (Eur J Med Chem, 2022)

Legend:
BT-474 = test: Antiproliferative activity against human BT-474 cells assessed as cell growth inhibition incubated for 5 days by MTT assay; type: functional, cell-based; conditions: BT-474, 120 h
[1] = Plasma stability in human assessed as compound remaining at 100 uM measured after 10 mins by LC-MS/MS analysis relative to control; type: ADME, cell-free; conditions: read-out: Stability
[2] = Plasma stability in human assessed as compound remaining at 100 uM measured after 60 mins by LC-MS/MS analysis relative to control; type: ADME, cell-free; conditions: read-out: Stability
[3] = Metabolic stability in human liver microsomes assessed as intrinsic clearance at 100 uM measured upto 60 mins in the presence of NADPH by LC-MS/MS analysis; type: ADME, Microsome; conditions: 1 h
CYP1A2 = target: T1, CYP1A2 (Homo sapiens, UniProt P05177); test: Inhibition of CYP1A2 in human liver microsomes at 10 uM preincubated for 10 mins followed by addition of NADPH-regenerating system and measured after 15 mins by LC-MS/MS analysis relative to control; type: ADME, Microsome; conditions: time 25 min
T1 sequence (P05177 whole entry): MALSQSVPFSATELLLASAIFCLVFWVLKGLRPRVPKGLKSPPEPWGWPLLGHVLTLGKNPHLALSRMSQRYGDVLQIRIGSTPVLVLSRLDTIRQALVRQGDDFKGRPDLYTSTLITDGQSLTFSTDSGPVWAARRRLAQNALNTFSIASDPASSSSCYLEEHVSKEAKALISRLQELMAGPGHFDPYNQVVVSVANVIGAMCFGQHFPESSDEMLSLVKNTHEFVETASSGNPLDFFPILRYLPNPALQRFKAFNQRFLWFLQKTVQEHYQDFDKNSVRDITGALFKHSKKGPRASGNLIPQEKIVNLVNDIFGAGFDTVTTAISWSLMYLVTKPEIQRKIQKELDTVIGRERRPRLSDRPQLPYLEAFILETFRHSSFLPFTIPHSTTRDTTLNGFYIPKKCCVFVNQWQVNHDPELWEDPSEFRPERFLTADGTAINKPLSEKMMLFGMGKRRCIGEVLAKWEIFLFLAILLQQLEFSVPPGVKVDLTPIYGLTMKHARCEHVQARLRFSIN

CYP3A4 = CYP3A4 (Homo sapiens, UniProt P08684); test: Inhibition of CYP3A4 in human liver microsomes at 10 uM preincubated for 10 mins followed by addition of NADPH-regenerating system and measured after 15 mins by LC-MS/MS analysis relative to control; type: ADME, Microsome; conditions: time 25 min
[4] = Half-life in Sprague-Dawley rat at 10 mg/kg, po by LC-MS/MS analysis; type: ADME, organism-based; conditions: in vivo
[5] = Cmax in Sprague-Dawley rat at 10 mg/kg, po by LC-MS/MS analysis; type: ADME, organism-based; design: dose 10 mg/kg, route po; conditions: in vivo
[6] = MRT in Sprague-Dawley rat at 10 mg/kg, po by LC-MS/MS analysis; type: ADME, organism-based; conditions: in vivo
[7] = Half-life in Sprague-Dawley rat at 3 mg/kg, iv by LC-MS/MS analysis; type: ADME, organism-based; conditions: in vivo
[8] = AUCinfinity in Sprague-Dawley rat at 3 mg/kg, iv by LC-MS/MS analysis; type: ADME, organism-based; design: time infinity, dose 3 mg/kg, route iv; conditions: in vivo
[9] = Volume of distribution at steady state in Sprague-Dawley rat at 3 mg/kg, iv by LC-MS/MS analysis; type: ADME, organism-based; conditions: in vivo, read-out: Vdss
MCF7 [10] = test: Induction of apoptosis in human MCF7 cells assessed as viable cells at 2.5 uM incubated for 48 hrs by Annexin-V-FITC/PI staining based flow cytometric analysis (reference value: 97 %); type: functional
MCF7 [11] = test: Induction of apoptosis in human MCF7 cells assessed as early apoptotic cells at 2.5 uM incubated for 48 hrs by Annexin-V-FITC/PI staining based flow cytometric analysis (reference value: 2.83 %); type: functional
MCF7 [12] = test: Induction of apoptosis in human MCF7 cells assessed as viable cells at 1 uM incubated for 48 hrs by Annexin-V-FITC/PI staining based flow cytometric analysis (reference value: 97 %); type: functional
MCF7 [13] = test: Induction of apoptosis in human MCF7 cells assessed as early apoptotic cells at 1 uM incubated for 48 hrs by Annexin-V-FITC/PI staining based flow cytometric analysis (reference value: 2.83 %); type: functional
MCF7 [14] = test: Induction of apoptosis in human MCF7 cells assessed as necrotic cells at 0.50 uM incubated for 48 hrs by Annexin-V-FITC/PI staining based flow cytometric analysis (reference value: 0.18 %); type: functional; conditions: dose 0.5 µM
MCF7 [15] = test: Induction of apoptosis in human MCF7 cells assessed as viable cells at 0.25 uM incubated for 48 hrs by Annexin-V-FITC/PI staining based flow cytometric analysis (reference value: 97 %); type: functional
MCF7 [16] = test: Induction of apoptosis in human MCF7 cells assessed as late apoptotic cells at 0.25 uM incubated for 48 hrs by Annexin-V-FITC/PI staining based flow cytometric analysis (reference value: 0.019 %); type: functional
MCF7 [17] = test: Induction of apoptosis in human MCF7 cells assessed as necrotic cells at 0.10 uM incubated for 48 hrs by Annexin-V-FITC/PI staining based flow cytometric analysis (reference value: 0.18 %); type: functional; conditions: dose 0.1 µM
MCF7 [18] = test: Induction of apoptosis in human MCF7 cells assessed as total apoptotic cells at 0.10 uM incubated for 48 hrs by Annexin-V-FITC/PI staining based flow cytometric analysis relative to control; type: functional; conditions: dose 0.1 µM
MCF7 [19] = test: Induction of apoptosis in human MCF7 cells assessed as total apoptotic cells at 0.50 uM incubated for 48 hrs by Annexin-V-FITC/PI staining based flow cytometric analysis relative to control; type: functional; conditions: dose 0.5 µM
MCF7 [20] = test: Induction of apoptosis in human MCF7 cells assessed as total apoptotic cells at 2.50 uM incubated for 48 hrs by Annexin-V-FITC/PI staining based flow cytometric analysis relative to control; type: functional; conditions: dose 2.5 µM
MCF7 [21] = test: Induction of cell cycle arrest in human MCF7 cells assessed as greater G1 phase cells at 2.5 uM measured after 48 hrs by flow cytometry analysis (reference value: 0.78 %); type: functional
MCF7 [22] = test: Induction of cell cycle arrest in human MCF7 cells assessed as decrease in G1 phase cells at 1 uM measured after 48 hrs by flow cytometry analysis (reference value: 56.9 %); type: functional; design: scale not given: the % may be the effect or the level left
MCF7 [23] = test: Induction of cell cycle arrest in human MCF7 cells assessed as less G1 phase cells at 1 uM measured after 48 hrs by flow cytometry analysis (reference value: 0.44 %); type: functional
MCF7 [24] = test: Induction of cell cycle arrest in human MCF7 cells assessed as greater G1 phase cells at 1 uM measured after 48 hrs by flow cytometry analysis (reference value: 0.78 %); type: functional
MCF7 [25] = test: Induction of cell cycle arrest in human MCF7 cells assessed as G2 phase cells at 0.50 uM measured after 48 hrs by flow cytometry analysis (reference value: 31.8 %); type: functional; conditions: dose 0.5 µM
MCF7 [26] = test: Induction of cell cycle arrest in human MCF7 cells assessed as less G1 phase cells at 0.50 uM measured after 48 hrs by flow cytometry analysis (reference value: 0.44 %); type: functional; conditions: dose 0.5 µM
MCF7 [27] = test: Induction of cell cycle arrest in human MCF7 cells assessed as G2 phase cells at 0.25 uM measured after 48 hrs by flow cytometry analysis (reference value: 31.8 %); type: functional
MCF7 [28] = test: Induction of cell cycle arrest in human MCF7 cells assessed as less G1 phase cells at 0.10 uM measured after 48 hrs by flow cytometry analysis (reference value: 0.44 %); type: functional; conditions: dose 0.1 µM

Sequence of CYP3A4 (P08684 whole entry): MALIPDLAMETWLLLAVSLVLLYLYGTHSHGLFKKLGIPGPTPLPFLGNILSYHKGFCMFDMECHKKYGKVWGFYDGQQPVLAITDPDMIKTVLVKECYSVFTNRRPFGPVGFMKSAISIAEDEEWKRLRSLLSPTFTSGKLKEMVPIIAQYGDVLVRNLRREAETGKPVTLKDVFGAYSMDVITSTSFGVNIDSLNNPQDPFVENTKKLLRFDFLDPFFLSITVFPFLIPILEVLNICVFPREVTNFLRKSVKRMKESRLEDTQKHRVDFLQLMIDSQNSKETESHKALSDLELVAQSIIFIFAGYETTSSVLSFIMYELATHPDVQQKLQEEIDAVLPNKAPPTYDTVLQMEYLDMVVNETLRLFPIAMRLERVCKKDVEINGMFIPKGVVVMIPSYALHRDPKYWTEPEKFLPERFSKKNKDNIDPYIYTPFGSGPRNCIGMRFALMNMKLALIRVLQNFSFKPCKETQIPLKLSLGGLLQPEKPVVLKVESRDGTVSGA

Cc1cc(Nc2nc(NCc3ccc(F)cc3F)nc3c2cnn3C2CCOCC2)n[nH]1
IC50 (BT-474): 2.35 µM | remaining at 10 min, 100 µM [1]: 108% | remaining at 1 h, 100 µM [2]: 99.2% | CLint [3]: 46.8 µL/min/mg | inhibition at 0.25 h, 10 µM (CYP1A2): 21.2% | inhibition at 0.25 h, 10 µM (CYP3A4): 0% | half-life [4]: 1.75 h | Cmax [5]: 81.1 ng/mL | MRT [6]: 3.13 h | half-life [7]: 1.05 h | AUC(0-inf) [8]: 1070 ng·h/mL | Vd [9]: 3.02 L/kg | Activity (MCF7 [10]): 19.7% | Activity (MCF7 [11]): 68.5% | Activity (MCF7 [12]): 27.5% | Activity (MCF7 [13]): 65% | Activity (MCF7 [14]): 0.56% | Activity (MCF7 [15]): 67.1% | Activity (MCF7 [16]): 6.18% | Activity (MCF7 [17]): 1.15% | Activity (MCF7 [18]): 24.04% | Activity (MCF7 [19]): 67.28% | Activity (MCF7 [20]): 79.3% | Activity (MCF7 [21]): 0.87% | Activity (MCF7 [22]): 21.5% | Activity (MCF7 [23]): 0.37% | Activity (MCF7 [24]): 0.61% | Activity (MCF7 [25]): 44.6% | Activity (MCF7 [26]): 0.71% | Activity (MCF7 [27]): 44.4% | Activity (MCF7 [28]): 0.37%
